The values below are quoted from earlier work in patent US8865213B2, “Modified release pharmaceutical compositions” (USV Limited, priority 2009, dated 2014).

On to `COC(=O)C1=C(C)NC(C)=C(C(=O)OCC(C)C)C1c1ccccc1[N+](=O)[O-]` (centres unmarked) [Nisoldipine, 3,5-pyridinedicarboxylic acid, 1,4-dihydro-2,6-dimethyl-4-(2-nitrophenyl)-, methyl 2-methyl-propyl ester], for which the Solubility in ethanol entry (ethanol) is given as “soluble”. For the same compound, the Solubility in water entry (water) was “practically insoluble”.
